Read-outs that look alike come from different tables or passages of the source.
Experiments:
[1] = molecular target: EP4 (Homo sapiens, UniProt P35408); assay: Prostanoid EP4 receptor activation, functional assay; format: cell-based; details: 150 μM
[2] = test system: HL-60 cells; assay: HL-60 cell viability with and without DMSO differentiation (Alamar Blue); format: cell-based; details: Homo sapiens, 48 hours, n=1
Description: Cells were fixed with […] BD fix buffer while vortexing. […] After the required incubation time, cells were washed and incubated for another hour with goat anti-rabbit Alexa fluor 488 antibody. Cells are then washed and resuspended in PBS and acquired by LSRFortessa™ flow cytometer (BD Biosciences, USA) with a 488 nm laser, a 505 nm long-pass filter and a 530/30 nm band-pass filter (for FITC detection). Data was analyzed using the FlowJo software. […] Cells were treated with varying concentration of β-lapachone for a time period of 48 hours. Cell death was analyzed using standard Alamar Blue assay. Data is represented after being normalized to the vehicle control.

[3] = test system: HL-60; details: cited from earlier work
[4] = molecular target: T1, 5-LO (Homo sapiens, UniProt P09917); assay: 5-LO activity in neutrophil homogenates; format: biochemical; design: endogenous in cells; host or cells: neutrophils isolated from peripheral blood of healthy adult volunteers; intact or sonicated homogenates; details: n=3
T1 sequence (P09917 1-674): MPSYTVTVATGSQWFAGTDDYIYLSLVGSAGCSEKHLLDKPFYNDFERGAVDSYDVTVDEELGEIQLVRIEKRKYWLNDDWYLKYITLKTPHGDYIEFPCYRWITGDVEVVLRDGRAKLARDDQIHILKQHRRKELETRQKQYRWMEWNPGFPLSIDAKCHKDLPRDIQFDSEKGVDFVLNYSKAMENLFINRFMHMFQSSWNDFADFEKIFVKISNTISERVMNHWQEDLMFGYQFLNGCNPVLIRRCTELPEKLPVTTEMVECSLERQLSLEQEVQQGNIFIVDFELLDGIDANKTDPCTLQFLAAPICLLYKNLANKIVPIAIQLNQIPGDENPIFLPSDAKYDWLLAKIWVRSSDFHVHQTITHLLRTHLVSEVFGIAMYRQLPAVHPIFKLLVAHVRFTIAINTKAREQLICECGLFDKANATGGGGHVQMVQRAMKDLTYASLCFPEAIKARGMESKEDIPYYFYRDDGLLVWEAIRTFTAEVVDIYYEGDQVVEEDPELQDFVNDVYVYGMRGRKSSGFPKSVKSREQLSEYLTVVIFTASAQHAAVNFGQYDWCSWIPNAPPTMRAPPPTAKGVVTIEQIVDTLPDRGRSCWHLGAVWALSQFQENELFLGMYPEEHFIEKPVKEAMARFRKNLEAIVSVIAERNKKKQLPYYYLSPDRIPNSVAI
Description: (§1) Peripheral blood (University Hospital Jena, Germany) was withdrawn from healthy adult volunteers with consent that had not taken any anti-inflammatory drugs during the last 10 days, by venipuncture in heparinized tubes (16 IE heparin/mL blood). The blood was centrifuged at 4000 g for 20 min at 20° C. for preparation of leukocyte concentrates. Leukocyte concentrates were then subjected to dextran sedimentation and centrifugation on lymphocyte separation medium (LSM 1077, PAA, Colbe, Germany). Contaminating erythrocytes of pelleted neutrophils were removed by hypotonic Iysis. Neutrophils were then washed twice in ice-cold PBS and finally resuspended in PBS pH 7.4 containing 1 mg/mL glucose or in PBS pH 7.4 containing 1 mg/mL glucose plus 1 mM CaCl2 (PGC buffer) (purity>96-97%).
For analysis of 5-LO product formation in corresponding homogenates, neutrophils were resuspended in PBS containing 1 mM EDTA for 5 min at 4° C. and sonicated (4×10 s, 4° C.). Homogenates, corresponding to 5×10^6 cells/mL, were incubated with the test compounds or vehicle (0.1% DMSO) with or without 1 mM DTT for 15 min at 4° C., pre-warmed for 30 s at 37° C., and the reaction was started by the addition of 2 mM CaCl2 plus the indicated concentrations of AA (routinely 20 μM). The reaction was stopped after 10 min and the samples were analyzed as described for intact cells above.
Data are expressed as mean±S.E.M. IC50 values were calculated from averaged measurements at 6 different concentrations of the compound by nonlinear regression using GraphPad Prism software (San Diego, Calif.) one site binding competition. Statistical evaluation of the data was performed by one-way ANOVA followed by a Tukey-Kramer post-hoc test for multiple comparisons respectively. A p value<0.05 (*) was considered significant.

[5] = molecular target: T1, 5-LO; assay: 5-LO product formation in intact human neutrophils; format: cell-based; design: endogenous in cells; host or cells: neutrophils isolated from peripheral blood of healthy adult volunteers; intact or sonicated homogenates
Description: as §1, with “Neutrophils were then washed twice in ice-cold PBS and finally resuspended in PBS pH 7.4 containing 1 mg/mL glucose or in PBS pH 7.4 containing 1 mg/mL glucose plus 1 mM CaCl2 (PGC buffer) (purity>96-97%).” left out
Method B. For determination of 5-LO products in intact neutrophils, the cells (5×10^6) were resuspended in 1 mL PGC buffer, preincubated for 15 min at 37° C. with β-lapachone or vehicle (0.1% DMSO), and incubated for 10 min at 37° C. with 2.5 μM Ca^2+-ionophore A23187 plus 20 μM AA. […] 5-LO products (LTB4, tr-LTB4 isomers, and 5-HETE), were analyzed by RP-HPLC and quantities calculated on the basis of the internal standard PGB1. Cysteinyl-LTs C4, D4 and E4 were not detected (amounts were below detection limit), and oxidation products of LTB4 were not determined.
Data are expressed as mean±S.E.M. IC50 values were calculated from averaged measurements at 6 different concentrations of the compound by nonlinear regression using GraphPad Prism software (San Diego, Calif.) one site binding competition. […]

Sequence of EP4 (P35408 whole entry): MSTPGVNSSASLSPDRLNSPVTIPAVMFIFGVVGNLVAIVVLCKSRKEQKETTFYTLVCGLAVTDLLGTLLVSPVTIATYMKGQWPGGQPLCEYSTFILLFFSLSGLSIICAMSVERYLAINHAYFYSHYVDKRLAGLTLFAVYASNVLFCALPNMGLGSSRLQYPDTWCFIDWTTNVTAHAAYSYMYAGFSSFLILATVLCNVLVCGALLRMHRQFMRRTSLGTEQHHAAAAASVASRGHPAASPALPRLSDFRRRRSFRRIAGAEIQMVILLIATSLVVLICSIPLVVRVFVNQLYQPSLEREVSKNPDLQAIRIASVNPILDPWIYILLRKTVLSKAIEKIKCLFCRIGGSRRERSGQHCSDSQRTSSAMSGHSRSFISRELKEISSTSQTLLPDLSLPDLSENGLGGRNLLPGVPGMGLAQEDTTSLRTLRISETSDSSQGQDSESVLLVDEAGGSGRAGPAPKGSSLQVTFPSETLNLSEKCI

`CC1(C)CCC2=C(O1)c1ccccc1C(=O)C2=O` [Compound 1, 3,4-dihydro-2,2-dimethyl-2H-naphtho[1,2-b]pyran-5,6-dione] gave an EP4 activation [1] of 53%, an IC50 ([2]; DMSO-stimulated HL-60 cells overexpressing 5-LO, read-out: IC50 (differentiated), HL-60) of 180 nM and an IC50 ([2]; control HL-60 cells, read-out: IC50 (control), HL-60) of 390 nM. The pGI50 z-score ([3]; NCI-60, z-transformed pGI50) was 2.38, the GI50 ([3]; NCI-60) was 62.4 nM and the IC50 ([4]; 1 mM DTT, read-out: IC50 (with DTT), 5-LO activity in neutrophil homogenates) was 90 nM. The IC50 ([4]; absence of DTT, read-out: IC50 (without DTT), 5-LO activity in neutrophil homogenates) was 5200 nM, the IC50 ([5]; 1 mM DTT, n=4, read-out: IC50, 5-LO activity in intact human neutrophils supplemented with DTT) was 420 nM and the IC50 ([5]; without DTT, A23187 plus arachidonic acid, n=3, read-out: IC50 (5-LO), intact human neutrophils) was 8600 nM.
